Experimental data published in paper PMC11394712 (Foods, 2024).
≈ marks a conversion by molar mass, not a printed value.

What was measured:
α-amylase = conditions: ref 39 (Zheng et al.); cited from earlier work
α-glucosidase = conditions: ref 39 (Zheng et al.); cited from earlier work
[1] = molecular target: T1, α-Amylase from porcine pancreas (Sus scrofa, UniProt P00690); assay: Inhibition rate of α-amylase (glucose assay kit, 510 nm); format: biochemical
T1 construct: purchased Sigma-Aldrich (Shanghai, China); host or cells: porcine pancreas
T1 sequence (P00690 16-511): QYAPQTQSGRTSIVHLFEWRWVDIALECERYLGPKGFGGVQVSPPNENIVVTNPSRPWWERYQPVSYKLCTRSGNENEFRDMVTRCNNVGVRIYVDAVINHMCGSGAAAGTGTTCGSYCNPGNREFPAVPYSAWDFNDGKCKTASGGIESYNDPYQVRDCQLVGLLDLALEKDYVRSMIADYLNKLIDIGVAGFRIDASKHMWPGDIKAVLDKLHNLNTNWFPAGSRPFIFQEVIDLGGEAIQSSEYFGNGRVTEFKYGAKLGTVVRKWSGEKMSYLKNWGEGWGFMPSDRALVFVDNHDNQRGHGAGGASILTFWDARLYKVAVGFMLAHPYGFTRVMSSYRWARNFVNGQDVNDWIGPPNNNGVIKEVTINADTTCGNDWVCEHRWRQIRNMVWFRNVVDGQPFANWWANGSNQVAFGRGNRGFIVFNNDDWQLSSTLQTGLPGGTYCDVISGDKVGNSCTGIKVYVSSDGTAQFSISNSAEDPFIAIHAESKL
Method: For α-amylase, the method of Qin et al. [22] was used with slight modifications (the enzymatic reaction time was different). […] A 5 mL aliquot of the above solution was taken to undergo 10 min of incubation at 37 °C, following by the addition of 5 mL of starch solution (20 mg/mL) that was prepared and kept at 37 °C. Following 15 min of incubation at 37 °C, the reaction solution was removed, and a glucose assay kit was employed for assaying the glucose produced after starch hydrolysis through measuring the changes in the absorbance at 510 nm. […] IC50 was calculated using SPSS 25.0 (IBM) nonlinear regression fitting. (4) Inhibition ratio (%) = 1−ODsample−ODsample blank/ODenzyme solution−ODbuffer solution×100 where ODsample, ODsample blank, and ODenzyme solution represent the absorbance of the solution containing both the sample and the enzyme, the sample solution, and the enzyme solution, respectively. ODbuffer solution is the absorbance of the buffer solution.

[2] = molecular target: T1, α-Amylase from porcine pancreas; assay: Fluorescence quenching, binding and thermodynamic analysis, α-amylase; conditions: for Kd: KD dissociation constant; for Kd / KQ static quenching constant / n binding sites / ΔG free energy change / ΔH enthalpy change / ΔS entropy change / KA apparent quenching rate constant: α-amylase
Method: For fluorescence spectroscopic studies, we followed the protocol in the study of Yu et al.. […] Fluorescence quenching parameters were calculated using the following equations:(8) Fa=Fm⋅e^(Aex+Aem)/2 where Fm denotes the measured fluorescence data; Fa represents the adjusted fluorescence data; and Aex and Aem denote the absorbance at the excitation and emission wavelengths, respectively.
Stern–Volmer dynamic impact quenching equation:(9) F0/F=1+KAτ0[Q]
Binding and thermodynamic analyses were used for elucidating the mechanisms of enzyme inhibition, including the inhibition of fluorophores by quenchers. […] (13) lg(F0−F/F)=lgKC+nlg[Q] where F0, F, and [Q] are identical to those in Equation (9). KC is the binding constant (L/mol), and n denotes the average number of binding sites. (14) lnKQ2/KQ1=ΔH/R(1/T1−1/T2) (15) ΔG=−RTlnK=ΔH−TΔS

[3] = molecular target: T1, α-Amylase from porcine pancreas; assay: Reversibility and enzyme inhibition kinetics, α-amylase (Lineweaver–Burk); format: biochemical
Method: The protocol of Dong et al. was followed with minor modifications (the substrate concentration was different). […] The assay mixture received 10 min of incubation at 37 °C. The mixture underwent 15 min of incubation after being added with starch solution (5 mL, 20 mg/mL), followed by the determination of the absorbance change. […] The mixture of the above solution with 2 mL of pNPG solution (25.0 mmol/L) underwent 15 min of incubation, followed by the measurement of its absorbance at 405 nm.
The method in the study of Jiang et al. was modified slightly in this study (the concentration of the inhibitor was different). […] Thereafter, the assay mixture added with 5 mL of 10, 20, 40, 50, and 100 mg/mL of starch solution underwent 15 min of incubation at 37 °C. The assay was performed using a glucose assay kit, together with the identification of the absorbance change at 510 nm.
The assay mix was incubated further for 15 min at 37 °C. The experimenters terminated the reaction by adding 6 mL of sodium carbonate solution (0.2 mol/L). The absorbance change of the solution was monitored colorimetrically at 405 nm. […] The equations below were adopted for calculating Km, KIC, and KIN, which, respectively, represented the Michaelis constant, competitive inhibition constant, and non-competitive inhibition constant, in mg/mL [28].
Lineweaver–Burk:(5) 1/V=Km/Vmax⋅1/[S]+1/Vmax

[4] = tested on: porcine pancreatic α-amylase and amyloglucosidase (rice starch digestion); assay: In vitro digestion of genistein–starch mixed system (RDS, SDS, RS contents); format: biochemical, porcine; Aspergillus niger
Method: A particular volume of mixed enzyme solution was prepared in which the specific activities of porcine pancreatic α-amylase and amyloglucosidase were 150 U/mL and 15 U/mL, respectively, and kept at 37 °C. […] This mixed system was added to 25 mL of mixed enzyme solution to receive incubation at 37 °C and 160 r/min in a shaking water bath. Aliquots from the reaction solution were removed at 0, 20, and 120 min, followed by being assayed using a glucose assay kit (Megazyme). Below is the calculation equation of the rapidly digestible starch (RDS), slowly digestible starch (SDS), and resistant starch (RS) contents:(1) RDS(%)=(G20−G0)×0.9/TS×100 (2) SDS(%)=(G120−G20)×0.9/TS×100 (3) RS(%)=TS−RDS−SDS/TS×100
In the above equations, G0 represents the content of free glucose within starch; G20 and G120 are the quantities of glucose generated by the mixed enzyme solution after incubation for 20 and 120 min, respectively; TS represents the total starch content in the sample, mg; and 0.9 is the glucose conversion coefficient.

[5] = addition of genistein (0.4 mg/mL, 10%) vs starch alone
[6] = genistein 0.4 mg/mL (10.0 mg per 100 mg rice starch), 37 °C

## COc1cc(/C=C/C(=O)O)ccc1O [ferulic acid]
α-amylase
  IC50 α-amylase: 622 µg/mL (≈ 3.2 mM)
α-glucosidase
  IC50 α-glucosidase: 866 µg/mL (≈ 4.46 mM)

## O=c1c(-c2ccc(O)cc2)coc2cc(O)cc(O)c12 [genistein, Genistein]
[1]
  IC50: 2550 µM
[2]; 25, 31, 37 °C
  type of fluorescence quenching of α-amylase: static quenching
[2]; 25 °C
  Kd: 760 µM
  KQ static quenching constant: 540 L/mol
  n binding sites: 1.19
  ΔG free energy change: -3.415 kcal/mol
  ΔH enthalpy change: -0.11 kcal/mol
  ΔS entropy change: 50.65 J·mol^−1·K^−1
[2]; 31 °C
  Kd: 170 µM
  KA apparent quenching rate constant: 5.32e+11 M⁻¹ s⁻¹
  KQ static quenching constant: 530 L/mol
  n binding sites: 0.97
  ΔG free energy change: -3.717 kcal/mol
  ΔH enthalpy change: -1.44 kcal/mol
  ΔS entropy change: 31.97 J·mol^−1·K^−1
[2]; 37 °C
  Kd: 110 µM
  KA apparent quenching rate constant: 4.84e+11 M⁻¹ s⁻¹
  KQ static quenching constant: 480 L/mol
  n binding sites: 0.77
  ΔG free energy change: -3.81 kcal/mol
  ΔH enthalpy change: -0.504 kcal/mol
  ΔS entropy change: 44.59 J·mol^−1·K^−1
[3]; genistein 0, 1, 2 mg/mL
  type of inhibition of α-amylase: reversible and non-competitive
[3]; read-out: KIN (non-competitive inhibition constant), α-amylase (converted)
  Ki: 50500 µM
[4]; [5]
  increase of RS content: 7.18%
  increase of SDS content: 30.34%
  reduction of RDS content in starch: 37.52%
[4]; [6]
  RDS content of the mixed system: 20.63%
  RS content of the mixed system: 9.14%
  SDS content of the mixed system: 70.23%
